# Laboratory results from US20240351995A1, “(3-PIRYDYL)-QUINAZOLINE” (BASF SE, priority 2021, published 2024).
# Legend:
# [1] = system: Corynespora cassiicola G413A mutant; assay: Microtest: activity against Corynespora cassiicola G413A mutant in the microtiterplate test; assay type: cell-based; conditions: 31 ppm, relative to active compound-free control (100%)
# Excerpt: (§1) The active compounds were formulated separately as a stock solution having a concentration of 10000 ppm in dimethyl sulfoxide.
# (§2) The stock solutions were mixed according to the ratio, pipetted onto a micro titer plate (MTP) and diluted with water to the stated concentrations.
# (§3) The measured parameters were compared to the growth of the active compound-free control variant (100%) and the fungus-free blank value to determine the relative growth in % of the pathogens in the respective active compounds.
# A spore suspension of Corynespora cassiicola in an aqueous biomalt or yeast-bactopeptone-sodiumacetate solution was then added.
# Cercospora zeae maydis = assay: Microtest: activity against Cercospora zeae maydis in the microtiterplate test; assay type: cell-based; conditions: 31 ppm; relative to active compound-free control (100%)
# Excerpt: as §1, §2, §3
# A spore suspension of Cercospora zeae maydis in an aqueous biomalt or yeast-bactopeptone-sodiumacetate solution was then added.
SMILES,growth of the pathogen (relative growth in %) [1] [%],growth of the pathogen (relative growth in %) (Cercospora zeae maydis) [%]
Cc1cc(C2=NC(C)(C)N(C#N)c3ccccc32)cnc1C(F)F [Ex-27],19,–
CCCN1c2c(F)cccc2C(c2cnc(C(F)F)c(C)c2)=NC1(C)C [Ex-13],19,–
Cc1cc(C2=NC(C)(c3ccccc3)N(C)c3c(F)cccc32)cnc1C(F)F (racemic) [Ex-60],19,17
Cc1cc(C2=NC(C)(C)Nc3c(Cl)cccc32)cnc1C [Ex-23],19,–
Cc1cc(C2=NC(C)(C)N(C)c3c(Cl)cccc32)cnc1C [Ex-22],19,17
CCCCN1c2c(F)cccc2C(c2cnc(C(F)F)c(C)c2)=NC1(C)C [Ex-14],19,–
Cc1cc(C2=NC(C)(C)N(C)c3c(Br)cccc32)cnc1C(F)F [Ex-50],19,17
Cc1cc(C2=NC(C)(C)N(C#N)c3ccccc32)cnc1C [Ex-35],19,–
CCN1c2c(F)cccc2C(c2cnc(C(F)F)c(C)c2)=NC1(C)C [Ex-7],19,–
Cc1cc(C2=NC(C)(C)Nc3c(Cl)cccc32)cnc1C(F)F [Ex-8],19,–
Cc1cc(C2=NC(C)(C)N(C)c3cc(Cl)ccc32)cnc1C(F)F [Ex-38],19,17
Cc1cc(C2=NC(C)(CC(C)C)N(C#N)c3c(F)cccc32)cnc1C(F)F (racemic) [Ex-41],19,17
Cc1cc(C2=NC(C)(C)N(C#N)c3c(Cl)cccc32)cnc1C [Ex-28],19,–
Cc1cc(C2=NC(C)(CC(C)C)Nc3c(F)cccc32)cnc1C(F)F (racemic) [Ex-26],19,–
CCC1(C)N=C(c2cnc(C(F)F)c(C)c2)c2cccc(F)c2N1 (racemic) [Ex-25],19,–
Cc1cc(C2=NC(C)(C)N(C)c3cc(F)ccc32)cnc1C(F)F [Ex-36],19,–

SMILES,growth of the pathogen (relative growth in %) [1] [%],growth of the pathogen (relative growth in %) (Cercospora zeae maydis) [%]
Cc1cc(C2=NC(C)(C)N(C)c3c(F)cccc32)cnc1C(F)F [Ex-6],19,17
Cc1cc(C2=NC(C)(C)N(C#N)c3cc(F)ccc32)cnc1C(F)F [Ex-55],19,–
CC(=O)N1c2c(F)cccc2C(c2cnc(C(F)F)c(C)c2)=NC1(C)C [Ex-20],19,–
Cc1ccc2c(c1)N(C)C(C)(C)N=C2c1cnc(C(F)F)c(C)c1 [Ex-40],19,–
Cc1cc(C2=NC(C)(C)N(CC(C)C)c3c(F)cccc32)cnc1C(F)F [Ex-15],19,–
C#Cc1cccc2c1NC(C)(C)N=C2c1cnc(C(F)F)c(C)c1 [Ex-81],–,17
Cc1cc(C2=NC(C)(CC(C)C)N(C)c3c(F)cccc32)cnc1C(F)F (racemic) [Ex-32],19,–
Cc1cc(C2=NC(C)(C)Nc3c(F)cccc32)cnc1C(F)F [Ex-5],19,17
Cc1cc(C2=NC(C)(C3CC3)N(C)c3c(F)cccc32)cnc1C(F)F (racemic) [Ex-56],19,17
CCC1(C)N=C(c2cnc(C(F)F)c(C)c2)c2cccc(F)c2N1C (racemic) [Ex-29],19,17
Cc1cc(C2=NC(C)(c3ccccn3)N(C)c3c(F)cccc32)cnc1C(F)F (racemic) [Ex-61],19,17
Cc1cc(C2=NC(C)(C)N(C)c3c2ccc(F)c3F)cnc1C(F)F [Ex-91],19,17
Cc1ccc2c(c1)NC(C)(C)N=C2c1cnc(C(F)F)c(C)c1 [Ex-31],19,–
Cc1cc(C2=NC(C)(C)N(C)c3c(C)cccc32)cnc1C(F)F [Ex-53],19,17
Cc1cc(C2=NC(C)(C)N(C)c3c(Cl)cccc32)cnc1C(F)F [Ex-9],19,17
